Structures are written as SMILES. Where only a bound is given, the exact number is not on record here.

The target of data set [1] is T1, human cloned 5-HT6 receptors (Homo sapiens, UniProt P50406).
T1 construct: expressed in transfected cells; host or cells: HeLa cells (membrane preparation)
Description: 5-HT6 binding affinity, [3H]-LSD displacement on membranes of Hela cells expressing human cloned 5-HT6 receptors. To be noted: [3H]-LSD 3.0 nM, Hela cell membranes, 120 min at room temperature; read-out: 5-HT6 Binding Ki. On the procedure: The affinity of test compounds for the serotonin 5-HT6 receptor is evaluated in the following manner. Cultured Hela cells expressing human cloned 5-HT6 receptors are harvested and centrifuged at low speed (1,000×g) for 10.0 min to remove the culture media. The harvested cells are suspended in half volume of fresh physiological phosphate buffered saline solution and recentrifuged at the same speed. This operation is repeated. The collected cells are then homogenized in ten volumes of 50 mM Tris.HCl (pH 7.4) and 0.5 mM EDTA. The homogenate is centrifuged at 40,000×g for 30.0 min and the precipitate is collected. The obtained pellet is resuspended in 10 volumes of Tris.HCl buffer and recentrifuged at the same speed. The final pellet is suspended in a small volume of Tris.HCl buffer and the tissue protein content is determined in aliquots of 10-25 μl volumes. Bovine Serum Albumin is used as the standard in the protein determination according to the method described in Lowry et al., J. Biol. Chem., 193:265 (1951). The volume of the suspended cell membranes is adjusted to give a tissue protein concentration of 1.0 mg/ml of suspension. The prepared membrane suspension (10 times concentrated) is aliquoted in 1.0 ml volumes and stored at −70° C. until used in subsequent binding experiments.
Binding experiments are performed in a 96 well microtiter plate format, in a total volume of 200 μl. […] The test compounds are added in 20.0 μl volume.
The reaction is allowed to proceed in the dark for 120 min at room temperature, at which time, the bound ligand-receptor complex is filtered off on a 96 well unifilter with a Packard Filtermate® 196 Harvester. The bound complex caught on the filter disk is allowed to air dry and the radioactivity is measured in a Packard TopCount® equipped with six photomultiplier detectors, after the addition of 40.0 μl Microscint®−20 scintillant to each shallow well. The unifilter plate is heat-sealed and counted in a PackardTopCount® with a tritium efficiency of 31.0%.
Binding in the presence of varying concentrations of test compound is expressed as a percentage of specific binding in the absence of test compound. The results are plotted as log % bound versus log concentration of test compound. Nonlinear regression analysis of data points with a computer assisted program Prisms® yields both the IC50 and the Ki values of test compounds with 95% confidence limits.
The amount of displacement by the test compound is given in percent (%) inhibition and is derived from the following equation:
[formula] where B0 is the amount of CPM bound in the presence of the testing agent. NSB represents the CPM bound in the presence of a saturating concentration of a displacer and TB represents the total amount of CPM bound at zero (0) concentration of test compound.
Alternatively, a linear regression line of data points is plotted, from which the IC50 value is determined and the Ki value is determined based upon the following equation: Ki=IC50/(1+L/KD) where L is the concentration of the radioactive ligand used and KD is the dissociation constant of the ligand for the receptor, both expressed in nM.

T1 sequence (P50406 whole entry): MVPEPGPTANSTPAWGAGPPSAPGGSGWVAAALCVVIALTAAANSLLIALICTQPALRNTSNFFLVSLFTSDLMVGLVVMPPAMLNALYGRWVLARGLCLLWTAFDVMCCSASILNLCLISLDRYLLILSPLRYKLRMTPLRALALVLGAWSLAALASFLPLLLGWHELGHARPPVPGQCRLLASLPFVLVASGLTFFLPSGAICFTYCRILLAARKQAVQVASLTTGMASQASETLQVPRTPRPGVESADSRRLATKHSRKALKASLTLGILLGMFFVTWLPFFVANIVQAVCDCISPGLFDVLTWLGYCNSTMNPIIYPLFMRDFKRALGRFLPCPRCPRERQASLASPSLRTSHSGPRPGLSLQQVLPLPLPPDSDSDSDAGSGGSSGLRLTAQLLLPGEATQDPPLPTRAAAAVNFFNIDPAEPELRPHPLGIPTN

As for `CN1CCN(c2ccc3[nH]nc(S(=O)(=O)c4ccc(Cl)s4)c3c2)CC1` [Example 15], the melting point was over 250 °C. Also, the Ki in data set [1] was 2 nM. The like results for `CN1CCN(c2ccc3[nH]nc(S(=O)(=O)c4ccc(Br)cc4)c3c2)CC1` [Example 17] were, in that order, over 250 °C and 7 nM. In the case of `CN1CCN(c2ccc3[nH]nc(S(=O)(=O)c4ccccc4F)c3c2)CC1` [Example 18], the melting point was in the range of 160 to 161 °C. Also, in data set [1], the Ki came to 6 nM.

As to `CN1CCN(c2ccc3[nH]nc(S(=O)(=O)c4cccc(F)c4)c3c2)CC1` [Example 19], the melting point is over 250 °C. Also, in data set [1], the Ki amounted to 2 nM. Compound `O=S(=O)(c1ccccc1)c1nn(-c2cccc(C(F)(F)F)c2)c2ccc(N3CCN(Cc4ccccc4)CC3)cc12` [Example 28] had a melting point of 146 to 150 °C. For the same compound, the Ki in data set [1] turned out to be 136 nM.

Turning to `O=S(=O)(c1ccccc1)c1nn(CCc2ccccc2)c2ccc(N3CCNCC3)cc12` [Example 31], the melting point was in the range of 127 to 130 °C. Also, in data set [1], the Ki worked out at 3 nM. The compound `O=S(=O)(c1ccccc1)c1nn(-c2ccc(C(F)(F)F)cc2)c2ccc(N3CCNCC3)cc12` [Example 33] displayed a melting point of 170 to 172 °C. In addition, in data set [1], the Ki is 19 nM.

The compound `COc1cccc(-n2nc(S(=O)(=O)c3ccccc3)c3cc(N4CCNCC4)ccc32)c1` [Example 36] came in with a melting point of 132 to 135 °C. In addition, the Ki in data set [1] came to 20 nM. `O=S(=O)(c1ccccc1)c1nn(-c2ccc(F)cc2)c2ccc(N3CCNCC3)cc12` [Example 37] gave a melting point of 159 to 161 °C. Further, the Ki in data set [1] came to 4 nM. As to `O=S(=O)(c1ccccc1)c1nn(-c2ccc(F)c(Cl)c2)c2ccc(N3CCNCC3)cc12` [Example 38], the melting point was over 200 °C. In addition, the Ki in data set [1] came out at 73 nM.

The compound `O=S(=O)(c1ccccc1)c1nn(-c2cccc(C(F)(F)F)c2)c2ccc(N3CCNCC3)cc12` [Example 40] showed a melting point of 139 to 142 °C. Further, the Ki in data set [1] came out at 62 nM. In the same order, the values of `O=S(=O)(c1ccccc1)c1nn(-c2ccc(I)cc2)c2ccc(N3CCNCC3)cc12` [Example 42] are over 200 °C and 117 nM. In the case of `CCn1nc(S(=O)(=O)c2ccccc2)c2cc(N3CCNCC3)ccc21` [Example 43], the melting point was over 200 °C. Also, the Ki in data set [1] came to 3 nM.

As to `COc1ccc(S(=O)(=O)c2n[nH]c3ccc(N4CCN(C)CC4)cc23)cc1` [Example 64], the Ki in data set [1] turned out to be 12 nM. In the case of `CN1CCN(c2ccc3[nH]nc(S(=O)(=O)c4ccccc4Cl)c3c2)CC1` [Example 65], the Ki in data set [1] came out at 4 nM.

In the case of `CN1CCN(c2ccc3[nH]nc(S(=O)(=O)c4ccc(Cl)cc4)c3c2)CC1` [Example 67], the Ki in data set [1] was found to be 8 nM. As for `CN1CCN(c2ccc3[nH]nc(S(=O)(=O)c4ccc(F)cc4F)c3c2)CC1` [Example 68], the Ki in data set [1] was determined as 14 nM. With `CN1CCN(c2ccc3[nH]nc(S(=O)(=O)c4ccc(Cl)s4)c3c2)CC1` [Example 70], in data set [1], the Ki was found to be 3 nM. The same measure, in the same setting: in the case of `CC(C)c1ccc(S(=O)(=O)c2n[nH]c3ccc(N4CCN(C)CC4)cc23)cc1` [Example 71] it was 4 nM; in that of `CN1CCN(c2ccc3[nH]nc(S(=O)(=O)c4ccc5ccccc5c4)c3c2)CC1` [Example 72], 2 nM; in that of `CCCCc1ccc(S(=O)(=O)c2n[nH]c3ccc(N4CCN(C)CC4)cc23)cc1` [Example 74], 26 nM.

As to `COc1ccc(Cl)cc1S(=O)(=O)c1n[nH]c2ccc(N3CCN(C)CC3)cc12` [Example 77], the Ki in data set [1] came to 2 nM.

For `CN1CCN(c2ccc3[nH]nc(S(=O)(=O)c4ccc(S(C)(=O)=O)cc4)c3c2)CC1` [Example 80], the Ki in data set [1] worked out at 62 nM. Turning to `CN1CCN(c2ccc3[nH]nc(S(=O)(=O)c4ccccc4Br)c3c2)CC1` [Example 89], the Ki in data set [1] worked out at 10 nM. Still for that read-out and setting: in the case of `CN1CCN(c2ccc3[nH]nc(S(=O)(=O)c4c(Cl)cccc4Cl)c3c2)CC1` [Example 91] it was 6 nM. On to `CN1CCN(c2cc(Cl)cc3c(S(=O)(=O)c4ccc(F)cc4)n[nH]c23)CC1` [Example 97, 5-Chloro-3[(4-fluorophenyl)sulfonyl]-7-(4-methylpiperazin-1-yl)-1H-indazole], for which the Ki in data set [1] was found to be 12 nM. Same read-out and setting: then `CC(C)c1ccc(S(=O)(=O)c2n[nH]c3c(N4CCN(C)CC4)cc(Cl)cc23)cc1` [Example 98], with 22 nM; and `CN1CCN(c2cc(Cl)cc3c(S(=O)(=O)c4cccc(C(F)(F)F)c4)n[nH]c23)CC1` [Example 99], with 20 nM; and `CN1CCN(c2cc(Cl)cc3c(S(=O)(=O)c4cccc5ccccc45)n[nH]c23)CC1` [Example 100], with 5 nM. Take `CN1CCN(c2cccc3c(S(=O)(=O)c4cccc5ccccc45)n[nH]c23)CC1` [Example 101]: the Ki in data set [1] stood at 5 nM.

For the origin of these results see patent US7560470B2, “Heterocyclyl-3-sulfonylindazoles as 5-hydroxytryptamine-6 ligands” (Wyeth, priority 2003, dated 2009).
